Assay results from patent publication US4206215A, “Antimicrobial bis-[4-(substituted-amino)-1-pyridinium]alkanes” (Sterling Drug Inc., priority 1977, dated 1980).
Like-named read-outs stand apart in the source and are kept apart here.

What was measured:
[1] = system: A. niger 16404; assay: In vitro antifungal activity, MIC (modified Autotiter method); type: cell-based, Aspergillus niger; details: 18-20 hours at 37° C.
Method in brief: (§1)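 Inhibitory concentrations were established by automated serial twofold dilution of the test compound, starting at 1,000 mcg./ml. in solution, into sterile water, followed by inoculated semisynthetic medium (glucose, double strength); final concentrations tested: 500 to 0.06 mcg./ml.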

[2] = system: T. menta. 9129; assay: as above; type: cell-based, Trichophyton mentagrophytes; details: 18-20 hours at 37° C.; for MIC: Trichophyton mentagrophytes, 20 h, read-out: MIC T. menta. 9129
Method in brief: as §1

[3] = system: young adult male Swiss-Webster strain albino mice; assay: Acute oral toxicity (ALD50); type: in vivo; details: for Mortality 7 Days / Mortality 24 Hrs: aqueous solution
Method: (§2) The acute oral toxicity (ALD50) of several representative examples was determined as follows: Groups of 3 young adult male Swiss-Webster strain albino mice were fasted approximately 4 hours before medication and then medicated once orally by stomach tube.

[4] = Acute oral toxicity (ALD50); type: in vivo; details: mouse, in vivo, po, mice, aqueous solution; read-out: 7-Day ALD50
Method: as §2

[5] = system: P. mirab. MGH-1; assay: In vitro antibacterial activity, MIC (modified Autotiter method); type: cell-based, Proteus mirabilis; details: 18-20 hours at 37° C.
Method in brief: as §1

[6] = system: E. coli 100/B22; assay: as above; type: cell-based, Escherichia coli; details: 18-20 hours at 37° C.; for MIC: Escherichia coli, 100/B22, 20 h, read-out: MIC E. coli 100/B22
Method in brief: as §1

[7] = system: E. coli Vogel; assay: as above; type: cell-based, Escherichia coli; details: 18-20 hours at 37° C.; for MIC: Escherichia coli, 20 h, read-out: MIC E. coli Vogel
Method in brief: as §1

[8] = system: E. coli AB1932-1; assay: as above; type: cell-based, Escherichia coli; details: 18-20 hours at 37° C.; for MIC: Escherichia coli, AB19321, 20 h, read-out: MIC E. coli AB1932-1
Method in brief: as §1

[9] = system: K. pneum. 39645; assay: as above; type: cell-based, Klebsiella pneumoniae; details: 18-20 hours at 37° C.; for MIC: Klebsiella pneumoniae, 20 h, read-out: MIC K. pneum. 39645
Method in brief: as §1

[10] = system: Ps. aerug. MGH-2; assay: as above; type: cell-based, Pseudomonas aeruginosa; details: 18-20 hours at 37° C.; for MIC: Pseudomonas aeruginosa, 20 h, read-out: MIC Ps. aerug. MGH-2
Method in brief: as §1

[11] = system: S. pyogen. C203; assay: as above; type: cell-based, Streptococcus pyogenes; details: 18-20 hours at 37° C.; for MIC: Streptococcus pyogenes, 20 h, read-out: MIC S. pyogen. C203
Method in brief: as §1

[12] = system: C. albicans Wisc.; assay: In vitro antifungal activity, MIC (modified Autotiter method); type: cell-based, Candida albicans; details: 18-20 hours at 37° C.; for MIC: Candida albicans, 20 h, read-out: MIC C. albicans Wisc.
Method in brief: as §1

[13] = system: C. albicans 10231; assay: as above; type: cell-based, Candida albicans; details: 18-20 hours at 37° C.; for MIC: Candida albicans, 10231, 20 h, read-out: MIC C. albicans 10231
Method in brief: as §1

[14] = system: S. Aureus Smith; assay: In vitro antibacterial activity, MIC (modified Autotiter method); type: cell-based, Staphylococcus aureus; details: 18-20 hours at 37° C.; for MIC: Staphylococcus aureus, 20 h, read-out: MIC S. Aureus Smith
Method in brief: as §1

[15] = system: Herpes simplex type 2 virus; assay: Virucidal activity in vitro (plaque inhibition test); type: cell-based; details: 2 mg. of test compound on growth medium
Method: Virucidal activity of representative examples against Herpes simplex type 2 virus was determined in vitro employing a procedure similar to the plaque inhibition test for detection of specific inhibitors of DNA-containing viruses published by E. C. Herrmann, Jr., Proc. Soc. Exp. Biol. Med. 107, 142 (1961) wherein 2 mg. of the test compound was placed on the surface of the growth medium.

[16] = system: S. Aureus ATCC 6538; assay: Effect of serum on bacteriostatic activity (serial tube dilution test); type: cell-based, Staphyloccocus aureus; details: for Fold Increase in MIC S. Aureus ATCC 6538: 40% vs 0% horse serum; for MIC: Staphylococcus aureus, ATCC6538
Method: (§3) Antibacterial effectiveness in the presence of serum was determined for representative examples by the standard serial tube dilution test wherein paired comparisons of minimum inhibitory concentrations (MIC) were determined in the absence and in the presence of heat inactivated (30 min. at 56° C.) horse serum (40%) in the test medium. The results are expressed as the fold increase in MIC (mcg./ml.) versus Staphyloccocus aureus and Escherichia coli caused by the presence of serum and are presented in Table B hereinbelow.

[17] = system: E. Coli ATCC 8739; assay: as above; type: cell-based, Escherichia coli; details: for Fold Increase in MIC E. Coli ATCC 8739: 40% vs 0% horse serum; for MIC: Escherichia coli, ATCC8739
Method: as §3

[18] = 40% heat inactivated horse serum, read-out: MIC S. Aureus ATCC 6538 40% Serum
[19] = read-out: MIC S. Aureus ATCC 6538 0% Serum
[20] = 40% heat inactivated horse serum, read-out: MIC E. Coli ATCC 8739 40% Serum
[21] = read-out: MIC E. Coli ATCC 8739 0% Serum

Row | Compound | MIC A. niger 16404 [1] [µg/mL] | MIC P. mirab. MGH-1 [5] [µg/mL] | Virucidal activity against Herpes simplex type 2 virus [15] | MIC [2] [µg/mL] | MIC [6] [µg/mL] | MIC [7] [µg/mL] | MIC [8] [µg/mL] | MIC [9] [µg/mL] | MIC [10] [µg/mL] | MIC [11] [µg/mL] | Fold Increase in MIC S. Aureus ATCC 6538 [16] [fold] | MIC [16, 18] [µg/mL] | MIC [16, 19] [µg/mL] | MIC [12] [µg/mL] | MIC [13] [µg/mL] | Fold Increase in MIC E. Coli ATCC 8739 [17] [fold] | MIC [17, 20] [µg/mL] | MIC [17, 21] [µg/mL] | MIC [14] [µg/mL] | further results
1 | CCCCCCCNc1cc[n+](CCCCCCCCC[n+]2ccc(NCCCCCCC)cc2)cc1 [Example 25, 1,9-Bis-[4-(heptylamino)-1-pyridinium]nonane dichloride] | 1.95 | 31.3 |  |  |  |  |  |  |  |  |  |  |  |  |  |  |  |  |  | MIC T. menta. 9129 [2]: 1.0 µg/mL; Mortality 7 Days ([3]; 250 mg/kg oral): 1/3; Mortality 24 Hrs ([3]; 250 mg/kg oral): 1/3; Mortality 7 Days ([3]; 500 mg/kg oral): 1/3; Mortality 24 Hrs ([3]; 500 mg/kg oral): 1/3; Mortality 7 Days ([3]; 1000 mg/kg oral): 3/3; Mortality 24 Hrs ([3]; 1000 mg/kg oral): 3/3; Autopsy, gross tissue changes ([3]; oral, 7 days, Example 25: 1000 mg./kg.): congestion of the glandular portion of the stomachs of two of the three mice was observed; LD50 at 168 h [4]: 500 mg/kg; MIC E. coli 100/B22 [6]: 1.0 µg/mL; MIC E. coli Vogel [7]: 1.0 µg/mL; MIC E. coli AB1932-1 [8]: 1.0 µg/mL; MIC K. pneum. 39645 [9]: 1.95 µg/mL; MIC Ps. aerug. MGH-2 [10]: 31.3 µg/mL; MIC S. pyogen. C203 [11]: 0.5 µg/mL; MIC C. albicans Wisc. [12]: 1.0 µg/mL; MIC C. albicans 10231 [13]: 1.0 µg/mL; MIC S. Aureus Smith [14]: 0.25 µg/mL
2 | Clc1ccc(Nc2cc[n+](CCCCCCCCCC[n+]3ccc(Nc4ccc(Cl)cc4)cc3)cc2)cc1 [Example 79B, 1,10-bis-[4-(p-chlorophenylamino)-1-pyridinium]decane dimethanesulfonate] |  |  | inactive | 6.25 | 1.6 | 1.6 | 0.8 | 3.1 | 62.5 | 0.4 | 32 | 7.8 | 0.25 | 6.25 | 3.13 | 32 | 15.6 | 0.5 | 0.4 | MIC ([1]; Aspergillus niger, 16404, 20 h, read-out: MIC A. niger 16404): 25 µg/mL; MIC ([5]; Proteus mirabilis, 20 h, read-out: MIC P. mirab. MGH-1): > 125 µg/mL
3 | CCCCCCCCNc1cc[n+](CCCCCC[n+]2ccc(NCCCCCCCC)cc2)cc1 [Example 13, 1,6-bis-[4-(octylamino)-1-pyridinium]hexane dibromide] | 3.9 | 31.3 | active | 0.5 | 1.95 | 1.95 | 1 | 3.9 | 31.3 | 0.5 | 128 | 31.2 | 0.25 | 1.95 | 1.95 | 32 | 31.2 | 1 | 0.5 | 
